This is an account of results in patent US9763938B2, “Substituted quinoxalines as positive allosteric modulators of mGluR4” (MERCK PATENT GMBH, priority 2013, dated 2017).

T1 sequence (Q14833 33-912): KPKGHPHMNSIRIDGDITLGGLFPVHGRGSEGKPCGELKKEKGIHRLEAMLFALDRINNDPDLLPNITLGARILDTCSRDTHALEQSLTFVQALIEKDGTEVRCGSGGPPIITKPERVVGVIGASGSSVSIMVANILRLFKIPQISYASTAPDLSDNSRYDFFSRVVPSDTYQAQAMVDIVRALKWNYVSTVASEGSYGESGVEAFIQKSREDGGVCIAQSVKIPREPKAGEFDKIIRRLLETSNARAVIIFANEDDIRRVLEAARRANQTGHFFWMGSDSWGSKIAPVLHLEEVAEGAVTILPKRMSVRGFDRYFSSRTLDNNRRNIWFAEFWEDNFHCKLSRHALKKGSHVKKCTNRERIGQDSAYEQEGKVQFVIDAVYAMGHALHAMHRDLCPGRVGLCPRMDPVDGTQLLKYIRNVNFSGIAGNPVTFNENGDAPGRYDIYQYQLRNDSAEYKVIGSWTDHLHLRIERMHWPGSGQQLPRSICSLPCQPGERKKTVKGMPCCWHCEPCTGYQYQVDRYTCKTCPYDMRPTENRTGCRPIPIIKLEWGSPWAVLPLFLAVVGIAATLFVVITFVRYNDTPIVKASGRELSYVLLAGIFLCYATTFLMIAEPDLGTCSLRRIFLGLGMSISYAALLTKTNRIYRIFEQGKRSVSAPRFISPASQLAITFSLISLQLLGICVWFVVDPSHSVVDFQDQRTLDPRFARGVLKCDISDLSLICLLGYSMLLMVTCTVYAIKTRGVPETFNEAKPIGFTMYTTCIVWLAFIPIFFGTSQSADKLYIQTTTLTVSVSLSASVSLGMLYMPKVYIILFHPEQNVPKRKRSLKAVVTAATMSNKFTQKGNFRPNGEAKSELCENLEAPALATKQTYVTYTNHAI

This test concerns the target T1, hmGluR4 (Homo sapiens, UniProt Q14833).
T1 construct: host or cells: HEK293T
The experiment in a line: HEK-293 mGluR4 cells cAMP assay with EC20 L-glutamate (HTRF). It is filed as cell-based. The settings on record: positive allosteric activity at EC20 L-glutamate, 10 μM forskolin, HEK293T mGluR4 cells, read-out: hrmGluR4/HEK293T-hmGluR4 (EC50). The method, then: HEK-293 mGluR4 Cells cAMP Assay with EC20 L-Glutamate
Using mGluR4 suspension cell format, 10 μM Forskolin (final conc.) used to induce the production of cAMP.
Test the positive allosteric activity of the compounds of the invention at EC20 (2.3 μM for mGluR4 and 4.3 μM for mGluR6) L-Glutamate,
cAMP dymanic2 kit is intended for the direct quantitative determination of cAMP and its principle is based on HTRF technology.
Cell Preparation: split cells at 80%-90% confluence. The following day, rinse the cells with DMEM without GlutaMax and change to Glutamine Starvation Media. Incubate overnight.
Prepare compound plate: Perform compound serial dilution (uses Matrix 4341 plate), using the Bravo liquid handling platform protocol (compound serial dilution) which adds DMSO to columns 1-24 (except cols. 3 and 13). Serial dilute compounds located in columns 3 and 13 at a 1:3 ratio; 10 points (10 ul of 3 mM compound into 20 ul DMSO). Use the Bravo liquid handling platform to transfer 1 ul from the serial dilution plate into Matrix 4314 plate to create stamp plates.
Dilute 20 mM Forskolin (in DMSO) stock solution in HBSS buffer to make a 20 uM solution (forskolin buffer; 2× solution). To the forskolin buffer, add glutamate to a concentration of 8 uM (compound dilution buffer; 2×EC20 glutamate and forskolin).
Using a multidrop, add 50 ul/well of compound dilution buffer to columns 1-22 of the 2 ul compound stamp plate. Columns 23 and 24 receive forskolin buffer containing 400 uM glutamate (EC100 glutamate; 2× solution). Columns 1 and 2 receive compound dilution buffer containing EC20 glutamate, which is the basal control. Add a glutamate dose response to row P of compound plate. Prepare the dose response by serial diluting glutamate at a 1:3 ratio in forskolin buffer starting at 2 mM glutamate (2×). Dilute the glutamate 9 times and transfer to compound plate.
Harvest cells: Rinse cells with pre-warmed HBSS-10 mM HEPES (without Ca Mg) and dissociate the cells from the flask with versene. Centrifuge the cells, remove the supernatant and suspend in pre-warmed HBSS+10 mM Hepes. Count the cells and centrifuge. Remove the supernatant and suspend the cells in HBSS+Hepes (with Ca Mg) at a density of 400,000 cells/ml.
Dispense 5 ul from the diluted compound plate into Greiner low volume cell plate using the Bravo liquid handling platform. Using a Multidrop with the small tubing cassette, dispense 5 ul of cells (2000 cells/well) onto the compounds contained in the low volume plates. Incubate the cells at 37° C., 5% CO2 for 30 minutes in the incubator.
Prepare cAMP-d2 and anti-cAMP-Crytate according to the instructions for the two step assay (see Cisbio manual) and add 10 ul of the mixed reagent to each well of the assay plate using the Multidrop. Incubate at room temperature for 60 minutes and read on the Envision plate reader using the mGluR low volume cAMP HTRF 384 well protocol. The readout is the calculated fluorescence ratio ([…]*10000).
Take `c1ccc(-c2nc3ccccc3nc2-c2ccnc3ccccc23)cc1` [Compound 1, 2-Phenyl-3-quinolin-4-yl-quinoxaline]: the EC50 is less than 1 µM. In the case of `Oc1ccc(-c2nc3ccccc3nc2-c2ccccc2)cc1` [Compound 2, 4-(3-Phenyl-quinoxalin-2-yl)-phenol], the EC50 is less than 1 µM.

Take `OC1CCN(c2nc3ccccc3nc2-c2ccccc2)CC1` [Compound 3, 1-(3-Phenyl-quinoxalin-2-yl)-piperidin-4-ol]: the EC50 is less than 1 µM. Then `Fc1ccc(-c2nc3ccccc3nc2-c2cccc3[nH]ccc23)cc1F` [Compound 4, 2-(3,4-Difluoro-phenyl)-3-(1H-indol-4-yl)-quinoxaline], with 1 to 10 µM; and `Cc1cccc2nc(-c3ccccc3)c(-c3ccccc3)nc12` [Compound 5, 5-Methyl-2,3-diphenyl-quinoxaline], with 1 to 10 µM.

Consider `c1ccc(-c2nc3ccccc3nc2-c2cccc3cccnc23)cc1` [Compound 6, 2-Phenyl-3-quinolin-8-yl-quinoxaline], for which the EC50 lay within 1 to 10 µM. Next, `CC(=O)c1cccc2nc(-c3ccccc3)c(-c3ccccc3)nc12` [Compound 7, 1-(2,3-Diphenyl-quinoxalin-5-yl)-ethanone]: 1 to 10 µM; `c1ccc(-c2nc3c(nc2-c2ccccc2)CCCC3)cc1` [Compound 8, 2,3-Diphenyl-5,6,7,8-tetrahydro-quinoxaline]: 1 to 10 µM; `Fc1ccccc1-c1nc2ccccc2nc1-c1ccccc1F` [Compound 9, 2,3-Bis-(2-fluoro-phenyl)-quinoxaline]: 1 to 10 µM. `Fc1ccc(-c2nc3ccccc3nc2-c2ccccc2)cc1F` [Compound 10, 2-(3,4-Difluoro-phenyl)-3-phenyl-quinoxaline]: the EC50 lay within 1 to 10 µM.
